From patent US9487482B2, “3,4,5-trimethoxystyrylarylaminopropenones as potential anticancer agents” (Council of Scientific and Industrial Research, priority 2014, dated 2016)
pIC50: −log10 of the molar value.

Tests used:
A549 cells = test: In vitro cytotoxicity, MTT assay, A549; format: cell-based, human; details: Homo sapiens, A549 (non-small cell lung cancer), 48 h continuous drug exposure
Protocol: (§1) All cell lines used in this study were purchased from the American Type Culture Collection (ATCC, United States). A549, MCF-7, and HeLa were grown in Dulbecco's modified Eagle's medium (containing 10% FBS in a humidified atmosphere of 5% CO2 at 37° C.). HCT116 cells were cultured in Eagle's minimal essential medium (MEM) containing non-essential amino acids, 1 mM sodium pyruvate, […] bovine insulin, and 10% FBS. Cells were trypsinized when sub-confluent from T25 flasks/60 mm dishes and seeded in 96-well plates. The synthesized test compounds were evaluated for their in vitro antiproliferative in four different human cancer cell lines. A protocol of 48 h continuous drug exposure was used, and a MTT cell proliferation assay was used to estimate cell viability or growth. The cell lines were grown in their respective media containing 10% fetal bovine serum and were seeded into 96-well microtiter plates in 200 μL, aliquots at plating densities depending on the doubling time of individual cell lines. The microtiter plates were incubated at 37° C., 5% CO2, 95% air, and 100% relative humidity for 24 h prior to addition of experimental drugs. Aliquots of 2 μL, of the test compounds were added to the wells already containing 198 μL, of cells, resulting in the required final drug concentrations. For each compound, four concentrations (1, 10, 100, and 1000 μM) were evaluated, and each was done in triplicate wells. Plates were incubated further for 48 h, and the assay was terminated by the addition of 10 μL, of 5% MTT and incubated for 60 min at 37° C. Later, the plates were air-dried. Bound stain was subsequently eluted with 100 μL, of DMSO, and the absorbance was read on an multimode plate reader (Tecan M200) at a wavelength of 560 nm. Percent growth was calculated on a plate by plate basis for test wells relative to control wells. The above determinations were repeated thrice. The growth inhibitory effects of the compounds were analyzed by generating dose response curves as a plot of the percentage surviving cells versus compound concentration. The sensitivity of the cancer cells to the test compound was expressed in terms of IC50, a value defined as the concentration of compound that produced 50% reduction as compared to the control absorbance. (A. S. Kumar, M. A. Reddy, N. Jain, C. Kishor, T. R. Murthy, D. Ramesh, B. Supriya, A. Addlagatta, S. V. Kalivendi, B. Sreedhar. Eur. J. Med. Chem. 60 (2013) 305-24).

HeLa cells = test: In vitro cytotoxicity, MTT assay, HeLa; format: cell-based, human; details: Homo sapiens, HeLa (cervical carcinoma), 48 h continuous drug exposure
Protocol: as §1

MCF-7 cells = test: In vitro cytotoxicity, MTT assay, MCF-7; format: cell-based, human; details: Homo sapiens, MCF7, 48 h, MCF-7 (breast cancer), 48 h continuous drug exposure
Protocol: as §1

HCT116 cells = test: In vitro cytotoxicity, MTT assay, HCT116; format: cell-based, human; details: Homo sapiens, HCT-116, HCT116 (colon carcinoma), 48 h continuous drug exposure
Protocol: as §1

[1] = system: A549, HeLa, MCF-7 and HCT116 cells; test: In vitro cytotoxicity, MTT assay, summary over all four cancer cell lines; format: cell-based; details: Homo sapiens, range over the group of compounds and the four cell lines, read-out: IC50 value range towards all the cancer cell lines
Protocol: as §1

tubulin = details: by binding at colchicine binding site; Simoni et al., J. Med. Chem. 2008; cited from earlier work

`COc1ccc(C(=O)/C=C\Nc2c(/C=C\c3cc(OC)c(OC)c(OC)c3)ccc(OC)c2O)cc1[N+](=O)[O-]` [Compound 16t, (Z)-3-((2-hydroxy-3-methoxy-6-((Z)-3,4,5-trimethoxystyryl)phenyl)amino)-1-(4-methoxy-3-nitrophenyl)prop-2-en-1-one] showed an IC50 (A549 cells) of 7.33 µM, an IC50 (HeLa cells) of 1.66 µM and an IC50 (MCF-7 cells) of 0.6 µM. The IC50 (HCT116 cells) was 3.98 µM and the pIC50 [1] was 5.13 to 6.74.
Work on `COc1ccc(C(=O)/C=C\Nc2c(/C=C\c3cc(OC)c(OC)c(OC)c3)ccc(OC)c2O)cc1N` [Compound 16u] yielded an IC50 (A549 cells) of 1.32 µM, an IC50 (HeLa cells) of 2.51 µM and an IC50 (MCF-7 cells) of 0.18 µM. For the same compound, the IC50 (HCT116 cells) was 1.74 µM and the pIC50 [1] was 5.13 to 6.74.
With `COc1ccc(/C=C\c2cc(OC)c(OC)c(OC)c2)c(N/C=C\C(=O)c2cc(OC)c(OC)c(OC)c2)c1O` [Compound 16x, (Z)-3-((2-hydroxy-3-methoxy-6-((Z)-3,4,5-trimethoxystyryl)phenyl)amino)-1-(3,4,5-trimethoxyphenyl)prop-2-en-1-one] the IC50 (A549 cells) was 0.25 µM, the IC50 (HeLa cells) was 0.56 µM and the IC50 (MCF-7 cells) was 0.23 µM. For the same compound, the IC50 (HCT116 cells) was 3.63 µM and the pIC50 [1] was 5.13 to 6.74.
Work on `COc1ccc(/C=C\c2cc(OC)c(OC)c(OC)c2)c(N/C=C\C(=O)c2cc(OC)c(OC)c(OC)c2Br)c1O` [Compound 16y, (Z)-1-(2-bromo-3,4,5-trimethoxyphenyl)-3-((2-hydroxy-3-methoxy-6-((Z)-3,4,5-trimethoxystyryl)phenyl)amino)prop-2-en-1-one] yielded an IC50 (A549 cells) of 7.08 µM, an IC50 (HeLa cells) of 1.78 µM and an IC50 (MCF-7 cells) of 0.19 µM. It also gave an IC50 (HCT116 cells) of 2.69 µM and a pIC50 [1] of 5.13 to 6.74.
For `COc1cc(/C=C\c2ccc(OC)c(N)c2)cc(OC)c1` [S4 (Ca-4 amine), (Z)-5-(3,5-dimethoxystyryl)-2-methoxyaniline, reference compound], the IC50 (A549 cells) was 1.78 µM, the IC50 (HeLa cells) was 0.58 µM and the IC50 (MCF-7 cells) was 4.07 µM. For the same compound, the IC50 (HCT116 cells) was 1.62 µM and the “inhibited tubulin polymerization, compared with CA-4” value (tubulin) was “five times stronger than CA-4”.
